The text below walks through data of publication PMC8677862, “Substrate binding modes of purine and pyrimidine nucleotides to human ecto-5′-nucleotidase (CD73) and inhibition by their bisphosphonic acid derivatives” (Purinergic Signalling, 2021).

For one assay, the target named is T1, CD73 (Homo sapiens, UniProt P21589, K145S/K147S/K478S/N311D/N333D/N403D/N53D/T376A).
T1 construct: His6 (C); made in house
T1 sequence (P21589 27-549 N53D/K145S/K147S/N311D/N333D/T376A/N403D/K478S limits assumed): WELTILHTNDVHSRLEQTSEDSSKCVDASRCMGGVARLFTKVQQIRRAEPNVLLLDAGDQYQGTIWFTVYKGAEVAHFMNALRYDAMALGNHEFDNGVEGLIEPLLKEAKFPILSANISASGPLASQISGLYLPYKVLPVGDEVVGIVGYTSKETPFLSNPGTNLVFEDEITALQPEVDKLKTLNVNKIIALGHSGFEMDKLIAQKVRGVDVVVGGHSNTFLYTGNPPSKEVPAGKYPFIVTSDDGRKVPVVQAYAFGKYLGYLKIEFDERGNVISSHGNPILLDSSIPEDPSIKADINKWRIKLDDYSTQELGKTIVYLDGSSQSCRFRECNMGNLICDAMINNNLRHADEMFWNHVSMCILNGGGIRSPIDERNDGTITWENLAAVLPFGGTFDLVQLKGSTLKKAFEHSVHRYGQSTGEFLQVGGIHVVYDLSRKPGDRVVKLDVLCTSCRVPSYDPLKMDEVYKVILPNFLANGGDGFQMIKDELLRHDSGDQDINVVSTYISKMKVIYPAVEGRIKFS
The assay can be described thus: CD73 inhibition, malachite green assay. It counts as biochemical. How it is done:
In this study, enzyme activity and inhibition data was characterised using a modified malachite green assay. Each assay consisted of reaction buffer A (50 mM Tris–HCl pH 7.5, 100 mM NaCl, 1 mM MgCl2) to which the appropriate substrate and/or inhibitors (see Table S1) were added. Dissolved compounds were immediately used for the inhibition assays. The reactions were generally initiated by the addition of protein. The protein concentrations, substrates and inhibitors used for the various experiments are detailed below. In all experiments, reactions were monitored over a 10-min period during which samples were taken at regular intervals. At each desired time point, a malachite green/molybdate (1:1) solution was added to the sample, which simultaneously terminated the assay and also allowed the detection of the produced phosphate ions. These reaction mixtures were incubated at 25 °C for 25 min, followed by measurement of the absorbance at 620 nm. A standard curve (0–50 μM orthophosphate) was performed prior to each assay and was used to calculate the phosphate concentration. All measurements were carried out in triplicate.
To study the inhibition kinetics of CD73 against a panel of commercially available nucleotide-diphosphate analogues (AMPCP, GMPCP, dUMPCP and CMPCP; see Table S1), their IC50 values were determined. In these tests, CD73 protein (1.25 ng) was incubated in reaction buffer A containing various inhibitor concentrations (0.015, 0.031, 0.061, 0.12, 0.24, 0.49, 0.98, 1.95, 3.91, 7.81, 15.62, 31.25, 62.5, 125, 250 and 500 μM). […] Dose–response curves were plotted in GraphPad Prism (GraphPad Prism Software, La Jolla, CA, USA), and the inflection point of each curve was used to determine the IC50 value of each inhibitor. The IC50 values were then used to calculate the Ki value of each inhibitor using the Cheng-Prusoff equation [51].

Assay [1] deals with rat CD73. In words: Literature inhibition of rat CD73. It counts as biochemical. To be noted: rat CD73, from literature Ki values.
Assay [2] concerns the target rat CD73. The settings on record: cited from earlier work.

Counter-ions that a name gives are not always drawn.

The term Ki denotes a measure of affinity in units of concentration, obtained from inhibition or displacement. What is called IC50 is the point on the concentration scale where inhibition reaches its midpoint.

Regarding `Nc1ccn([C@@H]2O[C@H](COP(=O)(O)CP(=O)(O)O)[C@@H](O)[C@H]2O)c(=O)n1` [CMPCP, Cytidine-5'-[(α,β)-methyleno]diphosphate, Sodium salt], the Ki on CD73 (calculated from IC50 with the Cheng-Prusoff equation, human deglycosylated CD73 construct, read-out: Ki) was 304 ± 5.8 nM; at rat CD73 [2], 898 ± 63 nM. Further, the “ratio Ki (CMPCP)/Ki (AMPCP)” value on CD73 (human CD73 construct of this work) stood at 5.1; in the assay with rat CD73 [1], 4.6. Also, at CD73 (read-out: IC50), the IC50 was 3.2 ± 0.02 µM.
